Data: US20230277553A1, “THERAPEUTIC COMPOSITION OF CURE-PRO COMPOUNDS FOR TARGETED DEGRADATION OF BET DOMAIN PROTEINS, AND METHODS OF MAKING AND USAGE” (CORNELL UNIVERSITY, priority 2020, published 2023)
Entries after “also recorded” stand apart in the source; their conditions may differ.

Target: BRD4 (Homo sapiens, UniProt O60885)
Assay: CURE-PRO-mediated BRD4 degradation with VHL ligands, WES (ProteinSimple), MCF7 cells
Format: cell-based
Set-up: endogenous in cells
Settings: MCF7, 10 μM each
Procedure: All cell lines were purchased from ATCC or DSMZ and grown at 37° C. with 5% CO2. Human HeLa cells were cultured in complete growth medium (Dulbecco's modified Eagle's medium (DMEM) supplemented with 10% FBS); MCF7 cells were cultured in complete growth medium (Dulbecco's modified Eagle's medium (DMEM) supplemented with 10% FBS and 0.01 mg/ml human recombinant insulin (Sigma Aldrich); Namalwa and MOLM-13 cells were cultured in complete growth medium (RPMI 1640 medium supplemented with 10% FBS); MV-4-11 were cultured in complete growth medium (Iscove's Modified Dulbecco's medium, supplemented with 10% FBS); HCT116 cells were cultured in complete growth medium (McCoy's 5a Medium supplemented with 10% FBS). For cellular degradation of BRD4 studies, cells were seeded in a 12-well plate at 70-80% confluency, allowed to attach overnight, and incubated with the indicated compounds for the indicated time. When indicated, a 15-minute pretreatment with 10 μM pomalidomide, 10 μM VHL298, 10 μM Nutlin3a, 1 μM MG-132 or 1 μM Carfilzomib was performed before the addition of CURE-PROs. For washout studies, after CURE-PRO treatment, media was aspirated and incubated with complete medium for the indicated time before lysis.
WES Simple analysis was performed on WES system (ProteinSimple-Biotechne) according to the manufacturer's instructions. Total protein concentrations of cell lysates were determined by the Pierce BCA kit (Thermo Fisher). 3 μL of 0.3 μg/μL of the protein lysate was loaded onto a 12- to 230-kDa WES assay plate (ProteinSimple) where 300 nL sample was withdrawn through a capillary, subjected to electrophoretic separation of proteins by size, and followed by the simultaneous, HRP-based detection of proteins using the Anti-Rabbit Detection Module (Proteinsimple: #DM-001). The electropherograms were checked then the automatic peak detection was manually corrected if it was required.
MCF7 cells (3×10^6) were treated for 4-24 hours continually (FIG. 72), or treated for 4h, washed and incubated for a further 4-24 h with the compounds solubilized in DMSO. Compounds were added at 10 μM each. Cells were washed, lysed, and clarified by centrifugation. The total protein concentration was quantified by the BCA method (ThermoFisher Sciences). Standardized protein samples were electrophoresed and imaged as described in the WES Proteinsimple section above. FIG. 69 depicts the CURE-PRO-mediated BRD4 degradation for the BRD-E50 monomer, and VHL ligand, 8305.
MCF7 cells (3×10^6) were treated for 24 hours with the compounds solubilized in DMSO. CURE-PRO monomers were added at 10 μM each and the proteasomal inhibitors at 1 μM. Standardized protein samples were electrophoresed and imaged as described in the WES Proteinsimple section above. FIGS. 73 and 75 depicts the dependence of the proteasome for CURE-PRO-mediated BRD4 degradation.
MCF7 cells (3×10^6) were treated for 24 hours with the compounds solubilized in DMSO. CURE-PRO monomers were added at 10 μM. FIG. 74 depicts the CURE-PRO-mediated BRD4 degradation for the BRD-E50 monomer, and VHL ligand, 8305 combined in a 1:1 ratio after 24 h.

Structure (SMILES): CCNC(=O)C[C@@H]1N=C(c2ccc(Cl)cc2)c2cc(OCCCCC(=O)Nc3cccc(B(O)O)c3)ccc2-n2c(C)nnc21 [BRD-E20, (3-(5-(((4S)-6-(4-chlorophenyl)-4-(2-(ethylamino)-2-oxoethyl)-1-methyl-4H-benzo[f][1,2,4]triazolo[4,3-a][1,4]diazepin-8-yl)oxy)pentanamido)phenyl)boronic acid]
- BRD4 degradation, with VHL ligand 8304 (WES): failed to induce BRD4 degradation
- BRD4 degradation, with VHL ligand 8305 (WES) (1:1 with 8305, 4-24 h, with washout where stated): caused BRD4 degradation; also recorded: marked BRD4 degradation
